Measured values reported in patent US20120015907A1, “Furopyridine compounds and uses thereof” (NOVARTIS AG, priority 2010, published 2012).

Biological target: T1, HCV polymerase (Hepatitis C virus genotype 1b, UniProt Q9WMX2)
T1 construct: (His)6 (C)
Assay: biochemical
Details: polymerase assay of Biological Example 1; read-out: NS5B polymerase IC50

SMILES	IC50
CCc1cc2c(C(=O)NC)c(-c3ccc(F)cc3)oc2nc1N(CCc1ccncc1)S(C)(=O)=O [Example 21.996, 5-ethyl-2-(4-fluorophenyl)-N-methyl-6-(N-(2-(pyridin-4-yl)ethyl)methylsulfonamido)furo[2,3-b]pyridine-3-carboxamide]	94 nM
CCc1cc2c(C(=O)NC)c(-c3ccc(F)cc3)oc2nc1N(CCCN(C)C(=O)c1ccccc1)S(C)(=O)=O [Example 23.998, 5-ethyl-2-(4-fluorophenyl)-N-methyl-6-(N-(3-(N-methylbenzamido)propyl)methylsulfonamido)furo[2,3-b]pyridine-3-carboxamide]	184 nM
C=C[C@@H](CN(c1nc2oc(-c3ccc(F)cc3)c(C(=O)NC)c2cc1C(=C)C)S(C)(=O)=O)OCc1ccccc1 [Example 35, (S)-6-(N-(2-(benzyloxy)but-3-enyl)methylsulfonamido)-2-(4-fluorophenyl)-N-methyl-5-(prop-1-en-2-yl)furo[2,3-b]pyridine-3-carboxamide]	6030 nM
CNC(=O)c1c(-c2ccc(C)cc2)oc2nc(N(CCC3CCCC3C(=O)O)S(C)(=O)=O)c(C3CC3)cc12 (centres unmarked) [Example 29.3, 2-(2-(N-(5-cyclopropyl-3-(methylcarbamoyl)-2-p-tolylfuro[2,3-b]pyridin-6-yl)methylsulfonamido)ethyl) cyclopentanecarboxylic acid]	6 nM
CNC(=O)c1c(-c2ccc(C)cc2)oc2nc(N(CCCC(CC(=O)O)OCCOC)S(C)(=O)=O)c(C3CC3)cc12 (centres unmarked) [Example 29.999996, 6-(N-(5-cyclopropyl-3-(methylcarbamoyl)-2-p-tolylfuro[2,3-b]pyridin-6-yl)methylsulfonamido)-3-(2-methoxyethoxy) hexanoic acid]	12 nM
CNC(=O)c1c(-c2ccc(C)cc2)oc2nc(N(CCCC3(CC(=O)O)CCOCC3)S(C)(=O)=O)c(C3CC3)cc12 [Example 48, 2-(4-(3-(N-(5-cyclopropyl-3-(methylcarbamoyl)-2-p-tolylfuro[2,3-b]pyridin-6-yl)methylsulfonamido)propyl)tetrahydro-2H-pyran-4-yl)acetic acid]	8 nM
CNC(=O)c1c(-c2ccc(C)cc2)oc2nc(N(CCC[C@H](C)C(=O)NCCCC(=O)O)S(C)(=O)=O)c(C3CC3)cc12 [Example 29.999991, (S)-4-(5-(N-(5-cyclopropyl-3-(methylcarbamoyl)-2-p-tolylfuro[2,3-b]pyridin-6-yl)methylsulfonamido)-2-methylpentanamido)butanoic acid]	20 nM
CNC(=O)c1c(-c2ccc(F)cc2)oc2nc(N(C)S(C)(=O)=O)c(C(C)C(F)(F)F)cc12 (centres unmarked) [Example 6.1, 2-(4-fluorophenyl)-N-methyl-6-(N-methylmethylsulfonamido)-5-(1,1,1-trifluoropropan-2-yl)furo[2,3-b]pyridine-3-carboxamide]	43 nM
CNC(=O)c1c(-c2ccc(F)cc2)oc2nc(N(CCCC(C)(C)C(=O)O)S(C)(=O)=O)c(C3CC3)cc12 [Example 27.1, 5-(N-(5-cyclopropyl-2-(4-fluorophenyl)-3-(methylcarbamoyl)furo[2,3-6]pyridin-6-yl)methylsulfonamido)-2,2-dimethylpentanoic acid]	12 nM
CCc1cc2c(C(=O)NC)c(-c3ccc(F)cc3)oc2nc1N(CCCC(C)(C)C(=O)O)S(C)(=O)=O [Example 21.4, 5-(N-(5-ethyl-2-(4-fluorophenyl)-3-(methylcarbamoyl)furo[2,3-b]pyridin-6-yl)methylsulfonamido)-2,2-dimethylpentanoic acid]	7 nM
CNC(=O)c1c(-c2ccc(C)cc2)oc2nc(N(CCCC(C)(COC)C(=O)O)S(C)(=O)=O)c(C3CC3)cc12 (centres unmarked) [Example 43.1, 5-(N-(5-cyclopropyl-3-(methylcarbamoyl)-2-p-tolylfuro[2,3-b]pyridin-6-yl)methylsulfonamido)-2-(methoxymethyl)-2-methylpentanoic acid]	2 nM
